In data set [1] the target is T1, inducible NO synthase (NOS2) (Homo sapiens, UniProt P35228).
T1 construct: endogenous in cells; host or cells: normal human keratinocytes (primary culture), induced with interferon-γ and interleukin 1-β
Nature of the data set: screening test of the modulation of induction of NOS2 by normal human keratinocytes (nitrite/nitrate measurement). It counts as cell-based. To be noted: for % inhibition: normal human keratinocytes, NOS2 induced by cytokines, nitrites and nitrates measured. How it is done: The activity of ascorbyl 2-O-cinnamate on the inducible NO synthase was evaluated in the assay described by Heck et al. (J.B.C., vol. 267, No. 30, 21277-21280, 25 Oct. 1992), a screening test of the modulation of induction of NOS2 by normal human keratinocytes. The objective of this test is, briefly, to evaluate the concentration of nitrate and nitrite after stimulation of the NO-synthase 2.
The test is carried out on a culture of normal human keratinocytes, derived from samples taken. The induction of the inducible NO synthase (NOS2) was caused by the addition of a combination of several cytokines to the culture medium. The product tested was applied at three concentrations varying from […] to 1000 μM.
The product tested was classed in one of the following two categories: inhibitor (I) or donor (D) of NO (nitric oxide) according to its capacity to diminish or increase, respectively, the quantity of nitrites and nitrates produced compared to the control signal […].
The following controls were introduced in the test:
A: positive control (induction of the enzyme): mixtures of interferon-γ (1000 u/ml) and interleukin 1-β (100 u/ml)
In order to determine the activity of the test product the quantity of stable NO reaction products (nitrites and nitrates) is measured with the aid of the “nitric calorimetric assay” kit sold by the Boehringer company under catalogue number 1756.28.
Ascorbyl 2-O-cinnamate was tested at concentrations of 100 μM, 500 μM and 1000 μM in ethanol

For data set [2], the system named is normal human keratinocytes. The data set can be described thus: cytotoxicity (% diminution of the signal compared with the control). It counts as cell-based. To be noted: % diminution of signal vs control; not very cytotoxic 0-20%, acceptable up to 40%, not retained >40%. An excerpt: Moreover, the cytotoxicity was expressed as % diminution of the signal compared with the control. A product was considered to be not very cytotoxic from 0-20%, acceptable up to 40% and not retained for values >40%.

Molecules are shown by their SMILES.

T1 sequence (P35228 whole entry): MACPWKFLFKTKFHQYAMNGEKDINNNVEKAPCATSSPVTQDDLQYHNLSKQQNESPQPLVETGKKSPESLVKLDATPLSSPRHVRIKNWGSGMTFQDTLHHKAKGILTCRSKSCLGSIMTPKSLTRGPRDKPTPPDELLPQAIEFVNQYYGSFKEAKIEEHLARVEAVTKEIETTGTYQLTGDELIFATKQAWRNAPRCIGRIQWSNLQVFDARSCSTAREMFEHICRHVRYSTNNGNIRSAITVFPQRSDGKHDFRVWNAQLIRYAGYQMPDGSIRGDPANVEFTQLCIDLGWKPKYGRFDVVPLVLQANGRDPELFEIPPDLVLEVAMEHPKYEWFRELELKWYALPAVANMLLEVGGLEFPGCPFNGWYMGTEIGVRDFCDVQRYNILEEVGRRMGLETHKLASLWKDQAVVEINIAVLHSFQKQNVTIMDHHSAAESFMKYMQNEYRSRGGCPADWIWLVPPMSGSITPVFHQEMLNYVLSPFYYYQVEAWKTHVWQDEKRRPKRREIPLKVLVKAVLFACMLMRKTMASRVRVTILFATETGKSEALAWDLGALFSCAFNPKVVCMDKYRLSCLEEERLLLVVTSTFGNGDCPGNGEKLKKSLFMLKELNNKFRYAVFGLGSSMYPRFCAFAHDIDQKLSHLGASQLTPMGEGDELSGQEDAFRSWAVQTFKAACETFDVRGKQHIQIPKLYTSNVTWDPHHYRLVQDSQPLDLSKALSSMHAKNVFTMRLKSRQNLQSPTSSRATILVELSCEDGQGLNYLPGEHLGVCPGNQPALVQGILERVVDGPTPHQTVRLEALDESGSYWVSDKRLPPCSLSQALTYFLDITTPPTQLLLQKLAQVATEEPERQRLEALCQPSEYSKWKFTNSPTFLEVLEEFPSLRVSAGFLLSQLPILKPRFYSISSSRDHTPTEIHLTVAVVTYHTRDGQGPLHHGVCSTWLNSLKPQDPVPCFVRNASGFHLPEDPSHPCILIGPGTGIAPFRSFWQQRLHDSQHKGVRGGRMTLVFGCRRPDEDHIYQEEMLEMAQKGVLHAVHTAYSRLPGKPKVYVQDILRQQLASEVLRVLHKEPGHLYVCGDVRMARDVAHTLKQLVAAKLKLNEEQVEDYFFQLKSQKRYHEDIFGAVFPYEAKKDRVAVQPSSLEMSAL

As to `O=C(/C=C/c1ccccc1)OC1=C(O)[C@@H]([C@@H](O)CO)OC1=O` [Ascorbyl 2-O-cinnamate, ascorbyl 2-O-cinnamate], the “% inhibition” value in data set [1] (100 μM in ethanol) worked out at 24.79%; in data set [1] (500 μM in ethanol) it was 53.74%; in data set [1] (1000 μM in ethanol), 74.4%. Also, in data set [1] (according to capacity to diminish or increase the quantity of nitrites and nitrates produced compared to the control signal), the “classification as inhibitor (I) or donor (D) of NO” value is “NO donor effect”. The cytotoxicity result in data set [2] is recorded as “not toxic”.

For the origin of these results see patent US20040220260A1, “Use of mono-or di-esters of cinnamic acid or of one of its derivatives and vitamin C, as donor of NO” (L'OREAL S.A., priority 2003, published 2004).
